Test results: US20250073189A1, “NATURAL DIETARY SUPPLEMENT FOR MENTAL HEALTH” (Mind Pop LLC, priority 2023, published 2025)

Columns and labels:
[1] = Inventors' unspecified tests and research on single ingredients of the supplement; type: in vivo
Source text: Caffeine is far and away the most widely known compound in the composition, however, the present invention uses the caffeine as a clean source of energy to go along with methylliberine and theacrine.

[2] = Inventors' dose testing of theacrine (50-400 mg); type: in vivo; conditions: according to research and trials; unlike caffeine
Method: Theacrine advances the beneficial effects of the compounds of this invention in unexpected ways. […] Throughout the studies pertaining to this invention, it has been discovered that low blood pressure is paramount for the proper firing of synapses and proper chemical balance in the brain. Testing in doses from 50-400 mg of theacrine have narrowed the optimum range to 125-150 mg, and more particularly about 140 mg. […] This is made possible by the waste removal from phosphatidylserine and enhanced by alpha-glycerylphosphorylcholine which spreads these effects beyond the brain, throughout the entire body.

With Cn1c(=O)c2c(ncn2C)n(C)c1=O [Caffeine, reference compound] the cognitive effects ([1]; 70 mg of caffeine) was “tremendous cognitive effects”.

With COc1nc2c(c(=O)n1C)n(C)c(=O)n2C [Methylliberine] the “energy boost in combination with the other ingredients” value ([1]; at precisely 140 mg, with caffeine and theacrine) was “unexpected energy boost”.

For Phosphatidylserine, the “effectiveness as supplementary ingredient (membrane functions, nutrient entry, cortisol modulation, waste exit)” value ([1]; in vivo) was “unexpectedly effective”.

For Cn1c(=O)c2c(n(C)c1=O)n(C)c(=O)n2C [Theacrine], the “effect on blood pressure” value [2] was “does not seem to significantly affect blood pressure”.

With C[N+](C)(C)CCOP(=O)([O-])OC[C@H](O)CO [alpha-glycerylphosphorylcholine, Alpha-glycerylphosphorylcholine] the “effect on muscular output and reaction times” value ([1]; many tests and much research) was “increase muscular output and reaction times”.
